{"source": "patent US8592572B2", "about": "“Liposome containing shRNA molecule targeting a thymidylate synthase and use thereof” (Delta-Fly Pharma, Inc., priority 2011, dated 2013)", "key": {"MSTO 211H tumor": {"tested_on": "MSTO 211H tumor", "test": "Antitumor effects of PEG-modified lipoplex upon systemic administration to MSTO 211H cancer-bearing mouse", "format": "in vivo, BALB/c nu/nu male mice", "conditions": "MSTO 211H tumor-bearing mice; day 21 from beginning of administration; lipoplex 40 μg shRNA i.v. 6 times; pemetrexed 100 mg/kg i.p. 6 times", "procedure": "BALB/c nu/nu male mice were subcutaneously inoculated with a MSTO 211H cell suspension (5×10^6 cells/100 μL). On day 14 from tumor cell inoculation, mice with tumor volumes of 50-100 mm^3 were subjected to an in vivo experiment.\nThe PEG-modified lipoplex prepared in Example 5 was administered via the mouse caudal vein to the MSTO 211H tumor bearing mice at a dose of 40 μg/200 μL (in terms of the shRNA amount) at 1-day intervals for 6 times in total starting on day 14 after tumor transplantation.\nWhen the existing chemotherapeutic agent, pemetrexed sodium hydrate (Alimta (registered trademark) (Eli Lilly Japan K.K.)), was used in combination with the lipoplex, the agent was intraperitoneally administered 6 times in total (day 1, 2, 3, 8, 9 and 10) with 100 mg/kg starting on day 14 after tumor transplantation.\nCarcinostatic activity was determined with tumor growth inhibition rate (TGI) (%) at day 21 from beginning of the administration. The TGI (%) was calculated in the same manner as described in the Example 6."}, "[1]": {"tested_on": "thymidylate synthase (TS)", "test": "siRNA and shRNA-induced TS expression inhibition (transfection with Lf RNAi MAX, Western blotting)", "format": "cell-based, human", "conditions": "1, 5 or 10 nM, 72 hours after transfection", "procedure": "Lipofectamine™ RNAi MAX (hereafter referred to as “Lf RNAi MAX”), which is a cationic liposome, was used as a transfection reagent.\nshRNA or siRNA prepared in Example 1 and Lf RNAi MAX were separately diluted with OptiMEM. The resulting solutions were mixed at a ratio of shRNA or siRNA to Lf RNAi MAX of 100 (pmol): 5 (μL). Here, equivalent amounts of the shRNA or siRNA solution and the Lf RNAi MAX solution were used. The obtained liquid mixture was left at room temperature for 10 to 20 minutes, resulting in complex (lipoplex) formation.\nEach lipoplex was directly added to a 10-cm dish containing OptiMEM to adjust the total volume to 5 ml. Next, DLD-1 or DLD-1/FU cell suspension (10 ml) was seeded on the dish (500,000 cells/dish) so as to result in a final total volume of 15 ml, followed by transfection. Here, the final concentration of shRNA or siRNA was adjusted to 1, 5, or 10 nM. After the initiation of transfection, culture was carried out in a medium at 37° C. under 5% CO2 for 72 hours. […]\nFor detection of TS and β-actin, overnight reaction was carried out at 4° C. using the following primary antibodies each diluted with Tween buffer: a mouse monoclonal anti-human TS antibody (1:1000) (ANASPEC, Inc., CA, USA); and a mouse monoclonal anti-human β-actin antibody (1:500) (Bio Vision, Inc., CA, USA). […] The band of each protein of interest was detected on X-ray film."}, "DLD-1 cells": {"tested_on": "DLD-1 cells", "test": "Cancer cell proliferation inhibitory effects of siRNA and shRNA, MTT, DLD-1", "format": "cell-based, human", "conditions": "5 nM siRNA/shRNA, in the presence of 5-FU 0.1 μg/mL", "procedure": "(§1) In this Example, experimentation was performed on a 96-well plate scale. A lipoplex obtained as in the case of Example 2 was directly added to wells containing OptiMEM to adjust the total volume to 50 μl per well. Next, a DLD-1 or DLD-1/FU cell (human colonic intestinal adenocarcinoma cell) suspension (2,000 cells/100 μl) was added to the wells to which the lipoplex had been added (final total volume: 150 μl), followed by transfection. Here, the final concentration of shRNA or siRNA per well was 5 nM.\n(§2) The medium was removed from each well 24 hours after the initiation of transfection. A fresh medium containing or not containing an existing chemotherapeutic agent, 5-FU, was added thereto (200 μl per well). Here, 5-FU was added to DLD-1 so as to result in a concentration of 0.1 μg/mL. 5-FU was added to DLD-1/FU so as to result in a concentration of 10 μg/mL. The medium was removed 0, 24, 48, 72, or 96 hours after the addition of the fresh medium. […] Also, the 0.5% MTT solution was added to cell-free wells to obtain a background absorbance.\n(§3) After the completion of incubation, acidic isopropanol (150 μl) was added to each well. […] Absorbance was determined at a wavelength of 570 nm using a plate reader. Then, the cell proliferation rate was calculated. […]"}, "DLD-1/FU cells": {"tested_on": "DLD-1/FU cells", "test": "Cancer cell proliferation inhibitory effects of siRNA and shRNA, MTT, DLD-1/FU", "format": "cell-based, human", "conditions": "5 nM siRNA/shRNA, in the presence of 5-FU 10 μg/mL", "procedure": "as §1, §2, §3"}, "MSTO 211H cells": {"tested_on": "MSTO 211H cells", "test": "Human plura malignant mesothelioma cell proliferation inhibitory effects of shRNA, MTT", "format": "cell-based", "conditions": "5 or 10 nM shRNA, in the presence of pemetrexed sodium hydrate 10 ng/mL", "procedure": "The experiment was carried out according to the method described in Example 3, except for using human plura malignant mesothelioma cell line (MSTO 211H) instead of human colorectal carcinoma cell line (DLD-1 or DLD-1/FU) and using pemetrexed sodium hydrate (Alimta (registered trademark) (Eli Lilly Japan K.K.)) instead of 5-FU as an existing chemotherapeutic agent. In the transfection, the final concentration of shRNA per well was either 5 or 10 nM. Pemetrexed sodium hydrate was added to a fresh medium at 10 ng/mL\nCell proliferation rate (%) was calculated in the same manner as described in the Example 3. FIG. 6 show the results."}}, "data": [{"compound": "Nc1nc2[nH]cc(CCc3ccc(C(=O)N[C@@H](CCC(=O)O)C(=O)O)cc3)c2c(=O)[nH]1", "note": "[pemetrexed sodium hydrate]", "values": [{"measurement": "tumor growth inhibitory effects (TGI)", "setting": "MSTO 211H tumor", "result": "approximately 28%"}]}, {"compound": "shTS: shRNA targeting TS, SEQ ID NO: 8, 5′-GUAACACCAUCGAUCAUGAUAGUGCUCCUGGUUGUCAUGAUCGAUGGUGUUACUU-3′, with two-uracil 3′ overhang (short hairpin RNA, chemistry not given here, further chemistry not given here)", "values": [{"measurement": "TS expression inhibition", "setting": "[1]; DLD-1/FU cells", "result": "significantly inhibit TS expression"}, {"measurement": "TS expression inhibition", "setting": "[1]; DLD-1 cells", "result": "significantly inhibit TS expression"}, {"measurement": "inhibition of cell proliferation", "setting": "DLD-1 cells", "result": "significantly inhibited proliferation"}, {"measurement": "inhibition of cell proliferation", "setting": "DLD-1/FU cells", "result": "significantly inhibited proliferation"}, {"measurement": "inhibition of cell proliferation", "setting": "MSTO 211H cells", "result": "significantly inhibited proliferation"}]}]}
